Data published in PubChem BioAssay (NCI).
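Where inhibition never reached the appropriate level, the endpoint shown equals the highest concentration tested. Otherwise, values were interpolated linearly from a five-concentration, 48-hour dose response in 96-well plates. GI50 marks 50% less growth. TGI: total growth inhibition.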

Assays:
Assay in all cases: NCI tumour cell line growth inhibition, 48 h
OVCAR-4 ovarian = system: OVCAR-4 ovarian
DU-145 prostate = system: DU-145 prostate
SNB-19 CNS = system: SNB-19 CNS
SW-620 colon = system: SW-620 colon
A549 NSCLC = system: A549 NSCLC
SK-MEL-28 melanoma = system: SK-MEL-28 melanoma
UACC-62 melanoma = system: UACC-62 melanoma
TK-10 renal = system: TK-10 renal
SK-MEL-2 melanoma = system: SK-MEL-2 melanoma
MDA-MB-231 breast = system: MDA-MB-231 breast
HL-60(TB) leukemia = system: HL-60(TB) leukemia
NCI-H226 lung = system: NCI-H226 lung
SF-295 CNS = system: SF-295 CNS
COLO 205 colon = system: COLO 205 colon
SNB-75 CNS = system: SNB-75 CNS
CAKI-1 renal = system: CAKI-1 renal
KM12 colon = system: KM12 colon
HS 578T breast = system: HS 578T breast
LOX IMVI melanoma = system: LOX IMVI melanoma
SF-539 CNS = system: SF-539 CNS
SR leukemia = system: SR leukemia
UO-31 renal = system: UO-31 renal
RPMI-8226 leukemia = system: RPMI-8226 leukemia
MDA-MB-435 = system: MDA-MB-435
SK-MEL-5 melanoma = system: SK-MEL-5 melanoma
MCF7 breast = system: MCF7 breast
A498 renal = system: A498 renal
786-0 renal = system: 786-0 renal
SK-OV-3 ovarian = system: SK-OV-3 ovarian
PC-3 prostate = system: PC-3 prostate
UACC-257 melanoma = system: UACC-257 melanoma
BT-549 breast = system: BT-549 breast
NCI-H23 lung = system: NCI-H23 lung
OVCAR-5 ovarian = system: OVCAR-5 ovarian
RXF 393 renal = system: RXF 393 renal
EKVX NSCLC = system: EKVX NSCLC
CCRF-CEM leukemia = system: CCRF-CEM leukemia
U251 CNS = system: U251 CNS
OVCAR-3 ovarian = system: OVCAR-3 ovarian
MOLT-4 leukemia = system: MOLT-4 leukemia
NCI-H460 lung = system: NCI-H460 lung
ACHN renal = system: ACHN renal
OVCAR-8 ovarian = system: OVCAR-8 ovarian
K-562 leukemia = system: K-562 leukemia
HCT-116 colon = system: HCT-116 colon
HT29 colon = system: HT29 colon
SN12C renal = system: SN12C renal
NCI/ADR-RES ovarian = system: NCI/ADR-RES ovarian
MALME-3M melanoma = system: MALME-3M melanoma
SF-268 CNS = system: SF-268 CNS
HOP-62 NSCLC = system: HOP-62 NSCLC
HCT-15 colon = system: HCT-15 colon
T-47D breast = system: T-47D breast
HCC-2998 colon = system: HCC-2998 colon

Molecule `COc1ccc(NC(=O)/C=C(C)/C=C/C=C(C)/C=C/C2=C(C)CCCC2(C)C)cc1` has a GI50 (OVCAR-4 ovarian) of 5.85 µM, a TGI (OVCAR-4 ovarian) of 19 µM and a GI50 (DU-145 prostate) of 8.2 µM. For the same molecule, the TGI (DU-145 prostate) was 20.3 µM, the GI50 (SNB-19 CNS) was 14.7 µM and the TGI (SNB-19 CNS) was 28.1 µM. It also gave a GI50 (SW-620 colon) of 2.98 µM, a TGI (SW-620 colon) of 8.43 µM and a GI50 (A549 NSCLC) of 14.9 µM. It also gave a TGI (A549 NSCLC) of 30.7 µM, a GI50 (SK-MEL-28 melanoma) of 4.13 µM and a TGI (SK-MEL-28 melanoma) of 14.1 µM. The GI50 (UACC-62 melanoma) was 10.7 µM, the TGI (UACC-62 melanoma) was 22.9 µM and the GI50 (TK-10 renal) was 37.5 µM. It also gave a TGI (TK-10 renal) of 58.2 µM, a GI50 (SK-MEL-2 melanoma) of 13.3 µM and a TGI (SK-MEL-2 melanoma) of 26.2 µM. For the same molecule, the GI50 (MDA-MB-231 breast) was 4.25 µM, the TGI (MDA-MB-231 breast) was 15.1 µM and the GI50 (HL-60(TB) leukemia) was 2.85 µM. For the same molecule, the TGI (HL-60(TB) leukemia) was 6.01 µM, the GI50 (NCI-H226 lung) was 2.83 µM and the TGI (NCI-H226 lung) was 6.7 µM. It also gave a GI50 (SF-295 CNS) of 13.3 µM, a TGI (SF-295 CNS) of 27.2 µM and a GI50 (COLO 205 colon) of 3.52 µM. For the same molecule, the TGI (COLO 205 colon) was 10.9 µM, the GI50 (SNB-75 CNS) was 4.5 µM and the TGI (SNB-75 CNS) was 18.5 µM. The GI50 (CAKI-1 renal) was 3.28 µM, the TGI (CAKI-1 renal) was 14.4 µM and the GI50 (KM12 colon) was 4.4 µM. For the same molecule, the TGI (KM12 colon) was 14.5 µM, the GI50 (HS 578T breast) was 9.42 µM and the TGI (HS 578T breast) was 39.8 µM. For the same molecule, the GI50 (LOX IMVI melanoma) was 2.93 µM, the TGI (LOX IMVI melanoma) was 10.6 µM and the GI50 (SF-539 CNS) was 2.59 µM. It also gave a TGI (SF-539 CNS) of 6.15 µM, a GI50 (SR leukemia) of 1.98 µM and a TGI (SR leukemia) of 11.9 µM. For the same molecule, the GI50 (UO-31 renal) was 10.8 µM, the TGI (UO-31 renal) was 25.4 µM and the GI50 (RPMI-8226 leukemia) was 2.33 µM. The TGI (RPMI-8226 leukemia) was 7.76 µM, the GI50 (MDA-MB-435) was 5.47 µM and the TGI (MDA-MB-435) was 19.1 µM. It also gave a GI50 (SK-MEL-5 melanoma) of 9.06 µM, a TGI (SK-MEL-5 melanoma) of 21.1 µM and a GI50 (MCF7 breast) of 3.28 µM. For the same molecule, the TGI (MCF7 breast) was 12.4 µM, the GI50 (A498 renal) was 19.9 µM and the TGI (A498 renal) was 34.5 µM. For the same molecule, the GI50 (786-0 renal) was 14.4 µM, the TGI (786-0 renal) was 28.7 µM and the GI50 (SK-OV-3 ovarian) was 17 µM. It also gave a TGI (SK-OV-3 ovarian) of 30.7 µM, a GI50 (PC-3 prostate) of 3.18 µM and a TGI (PC-3 prostate) of 11.8 µM. It also gave a GI50 (UACC-257 melanoma) of 12.3 µM, a TGI (UACC-257 melanoma) of 26.7 µM and a GI50 (BT-549 breast) of 27.2 µM. For the same molecule, the TGI (BT-549 breast) was 43.3 µM, the GI50 (NCI-H23 lung) was 9.78 µM and the TGI (NCI-H23 lung) was 24.3 µM. For the same molecule, the GI50 (OVCAR-5 ovarian) was 15.9 µM, the TGI (OVCAR-5 ovarian) was 30.7 µM and the GI50 (RXF 393 renal) was 12.8 µM. It also gave a TGI (RXF 393 renal) of 26.2 µM, a GI50 (EKVX NSCLC) of 14.9 µM and a TGI (EKVX NSCLC) of 29.2 µM. For the same molecule, the GI50 (CCRF-CEM leukemia) was 2.05 µM, the TGI (CCRF-CEM leukemia) was 4.67 µM and the GI50 (U251 CNS) was 4.76 µM. For the same molecule, the TGI (U251 CNS) was 17.9 µM, the GI50 (OVCAR-3 ovarian) was 2.64 µM and the TGI (OVCAR-3 ovarian) was 5.9 µM. The GI50 (MOLT-4 leukemia) was 2.34 µM, the TGI (MOLT-4 leukemia) was 5.96 µM and the GI50 (NCI-H460 lung) was 12.8 µM. It also gave a TGI (NCI-H460 lung) of 26.9 µM, a GI50 (ACHN renal) of 3.21 µM and a TGI (ACHN renal) of 12.4 µM. It also gave a GI50 (OVCAR-8 ovarian) of 13 µM, a TGI (OVCAR-8 ovarian) of 38.5 µM and a GI50 (K-562 leukemia) of 2.41 µM. The TGI (K-562 leukemia) was 7.23 µM, the GI50 (HCT-116 colon) was 2.43 µM and the TGI (HCT-116 colon) was 6.99 µM. It also gave a GI50 (HT29 colon) of 3.22 µM, a TGI (HT29 colon) of 10.2 µM and a GI50 (SN12C renal) of 11.2 µM. The TGI (SN12C renal) was 23.9 µM, the GI50 (NCI/ADR-RES ovarian) was 13.9 µM and the TGI (NCI/ADR-RES ovarian) was 31.1 µM. The GI50 (MALME-3M melanoma) was 38.9 µM, the TGI (MALME-3M melanoma) was 65.4 µM and the GI50 (SF-268 CNS) was 4.95 µM. It also gave a TGI (SF-268 CNS) of 17.3 µM, a GI50 (HOP-62 NSCLC) of 18.2 µM and a TGI (HOP-62 NSCLC) of 34.1 µM. For the same molecule, the GI50 (HCT-15 colon) was 4.51 µM, the TGI (HCT-15 colon) was 18.1 µM and the GI50 (T-47D breast) was 3.75 µM. It also gave a TGI (T-47D breast) of 16.1 µM, a GI50 (HCC-2998 colon) of 17.7 µM and a TGI (HCC-2998 colon) of 33.5 µM.
